Experimental data from ChEMBL document CHEMBL5260845, “Flavone-based arylamides as potential anticancers: Design, synthesis and in vitro cell-based/cell-free evaluations” (2020).
Activity calls are given as the source filed them. The calls are words filed in the database; no cut-off is given here.

Columns and labels:
SF-268 = assay: Antiproliferative activity against human SF-268 cells assessed as cell growth inhibition at 10 uM by SRB assay relative to control; format: functional
NCI-H226 = assay: Antiproliferative activity against human NCI-H226 cells assessed as cell growth inhibition at 10 uM by SRB assay relative to control; format: functional; details: pooled result: one value given for 4 cell lines, strains, targets or settings
T47D = assay: Antiproliferative activity against estrogen receptor positive human T47D cells assessed as inhibition of cell growth at 10 uM by SRB assay; format: functional, cell-based
M14 = assay: Antiproliferative activity against human M14 cells assessed as cell growth inhibition at 10 uM by SRB assay relative to control; format: functional
SK-MEL-2 = assay: Antiproliferative activity against human SK-MEL-2 cells assessed as cell growth inhibition at 10 uM by SRB assay relative to control; format: functional; details: Homo sapiens, SK-MEL-2, dose 10 µM
[1] = molecular target: Ephrin type-A receptor 3 (Homo sapiens) (UniProt P29320); assay: Inhibition of EPHA3 (unknown origin) at 10 uM by biochemical hotspot kinase assay relative to control
[2] = molecular target: Receptor-interacting serine/threonine-protein kinase 2 (Homo sapiens) (UniProt O43353); assay: Inhibition of RIPK2 (unknown origin) at 10 uM by biochemical hotspot kinase assay relative to control
[3] = molecular target: Mitogen-activated protein kinase 15 (Homo sapiens) (UniProt Q8TD08); assay: Inhibition of ERK7 (unknown origin) at 10 uM by biochemical hotspot kinase assay
[4] = molecular target: Death-associated protein kinase 3 (Homo sapiens) (UniProt O43293); assay: Inhibition of DAPK3 (unknown origin) at 10 uM by biochemical hotspot kinase assay
[5] = molecular target: Serine/threonine-protein kinase pim-1 (Homo sapiens) (UniProt P11309); assay: Inhibition of PIM1 (unknown origin) at 10 uM by biochemical hotspot kinase assay relative to control
[6] = molecular target: Calcium/calmodulin-dependent protein kinase type II subunit beta (Homo sapiens) (UniProt Q13554); assay: Inhibition of CAMK2B (unknown origin) at 10 uM by biochemical hotspot kinase assay relative to control
[7] = molecular target: Protein kinase C alpha type (Homo sapiens) (UniProt P17252); assay: Inhibition of PKCa (unknown origin) at 10 uM by biochemical hotspot kinase assay
[8] = molecular target: Glycogen synthase kinase-3 beta (Homo sapiens) (UniProt P49841); assay: Inhibition of GSK3beta (unknown origin) at 10 uM by biochemical hotspot kinase assay relative to control
[9] = molecular target: Hepatocyte growth factor receptor (Homo sapiens) (UniProt P08581); assay: Inhibition of c-MET (unknown origin) at 10 uM by biochemical hotspot kinase assay relative to control
Sequence of Hepatocyte growth factor receptor (Homo sapiens) (P08581 whole entry): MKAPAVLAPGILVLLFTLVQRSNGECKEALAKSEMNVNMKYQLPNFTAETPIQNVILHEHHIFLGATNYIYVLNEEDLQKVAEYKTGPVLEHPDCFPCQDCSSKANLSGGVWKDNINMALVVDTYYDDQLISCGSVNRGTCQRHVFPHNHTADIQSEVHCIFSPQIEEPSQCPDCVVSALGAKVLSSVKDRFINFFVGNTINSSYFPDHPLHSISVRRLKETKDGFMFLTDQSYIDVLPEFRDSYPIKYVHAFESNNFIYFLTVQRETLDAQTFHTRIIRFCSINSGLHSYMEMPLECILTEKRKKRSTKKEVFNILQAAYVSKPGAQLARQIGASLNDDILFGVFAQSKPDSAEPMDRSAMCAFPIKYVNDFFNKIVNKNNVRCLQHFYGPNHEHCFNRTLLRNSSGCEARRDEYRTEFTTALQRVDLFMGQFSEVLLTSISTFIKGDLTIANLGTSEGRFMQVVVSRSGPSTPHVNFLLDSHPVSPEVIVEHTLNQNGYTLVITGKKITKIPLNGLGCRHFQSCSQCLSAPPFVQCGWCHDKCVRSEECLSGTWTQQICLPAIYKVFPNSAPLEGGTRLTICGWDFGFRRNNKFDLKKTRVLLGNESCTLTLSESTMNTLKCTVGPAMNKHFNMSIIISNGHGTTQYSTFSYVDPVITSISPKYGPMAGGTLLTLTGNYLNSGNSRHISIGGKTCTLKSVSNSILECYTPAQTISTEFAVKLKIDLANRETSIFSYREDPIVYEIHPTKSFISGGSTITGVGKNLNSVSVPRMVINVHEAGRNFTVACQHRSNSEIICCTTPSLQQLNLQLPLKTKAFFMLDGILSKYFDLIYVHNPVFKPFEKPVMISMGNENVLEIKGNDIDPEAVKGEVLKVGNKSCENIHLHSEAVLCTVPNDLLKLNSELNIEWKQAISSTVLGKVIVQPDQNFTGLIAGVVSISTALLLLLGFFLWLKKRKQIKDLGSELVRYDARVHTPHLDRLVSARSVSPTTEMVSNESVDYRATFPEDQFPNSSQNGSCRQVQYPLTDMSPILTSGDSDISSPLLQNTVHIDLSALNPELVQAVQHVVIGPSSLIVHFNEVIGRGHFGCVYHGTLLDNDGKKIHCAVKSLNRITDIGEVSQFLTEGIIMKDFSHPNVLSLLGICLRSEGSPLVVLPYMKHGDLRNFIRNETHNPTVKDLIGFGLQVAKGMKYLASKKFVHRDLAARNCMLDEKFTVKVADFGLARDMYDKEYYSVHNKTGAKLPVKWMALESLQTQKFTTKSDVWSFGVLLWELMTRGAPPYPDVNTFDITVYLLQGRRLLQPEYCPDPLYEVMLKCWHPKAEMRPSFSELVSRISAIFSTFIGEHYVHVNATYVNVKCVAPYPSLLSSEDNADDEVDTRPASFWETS

[10] = molecular target: Fibroblast growth factor receptor 2 (Homo sapiens) (UniProt P21802); assay: Inhibition of FGFR2 (unknown origin) at 10 uM by biochemical hotspot kinase assay
Sequence of Fibroblast growth factor receptor 2 (Homo sapiens) (P21802 22-821 limits assumed): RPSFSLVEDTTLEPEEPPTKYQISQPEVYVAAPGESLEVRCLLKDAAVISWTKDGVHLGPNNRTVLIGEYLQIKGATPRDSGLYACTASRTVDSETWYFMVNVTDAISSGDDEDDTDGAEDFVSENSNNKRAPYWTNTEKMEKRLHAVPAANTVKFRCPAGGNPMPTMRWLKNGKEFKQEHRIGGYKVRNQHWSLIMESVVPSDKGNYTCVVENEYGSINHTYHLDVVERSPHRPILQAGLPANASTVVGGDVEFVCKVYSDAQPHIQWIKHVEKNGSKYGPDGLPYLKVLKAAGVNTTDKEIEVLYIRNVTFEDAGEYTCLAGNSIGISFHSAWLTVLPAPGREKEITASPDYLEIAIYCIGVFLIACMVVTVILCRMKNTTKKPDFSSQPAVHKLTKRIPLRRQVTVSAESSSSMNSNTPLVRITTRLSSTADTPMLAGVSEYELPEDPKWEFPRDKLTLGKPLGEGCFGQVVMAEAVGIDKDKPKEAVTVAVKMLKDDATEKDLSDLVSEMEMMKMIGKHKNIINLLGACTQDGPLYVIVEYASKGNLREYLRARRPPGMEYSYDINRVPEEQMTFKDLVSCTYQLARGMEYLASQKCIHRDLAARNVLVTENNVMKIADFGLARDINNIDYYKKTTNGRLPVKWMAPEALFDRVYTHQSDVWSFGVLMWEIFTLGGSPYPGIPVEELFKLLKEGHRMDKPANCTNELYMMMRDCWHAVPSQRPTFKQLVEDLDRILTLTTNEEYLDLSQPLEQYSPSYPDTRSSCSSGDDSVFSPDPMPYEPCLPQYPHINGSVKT

[11] = molecular target: Tyrosine-protein kinase JAK3 (Homo sapiens) (UniProt P52333); assay: Inhibition of JAK3 (unknown origin) at 10 uM by biochemical hotspot kinase assay
[12] = molecular target: Mitogen-activated protein kinase 14 (Homo sapiens) (UniProt Q16539); assay: Inhibition of p38a (unknown origin) at 10 uM by biochemical hotspot kinase assay
Sequence of Mitogen-activated protein kinase 14 (Homo sapiens) (Q16539 whole entry): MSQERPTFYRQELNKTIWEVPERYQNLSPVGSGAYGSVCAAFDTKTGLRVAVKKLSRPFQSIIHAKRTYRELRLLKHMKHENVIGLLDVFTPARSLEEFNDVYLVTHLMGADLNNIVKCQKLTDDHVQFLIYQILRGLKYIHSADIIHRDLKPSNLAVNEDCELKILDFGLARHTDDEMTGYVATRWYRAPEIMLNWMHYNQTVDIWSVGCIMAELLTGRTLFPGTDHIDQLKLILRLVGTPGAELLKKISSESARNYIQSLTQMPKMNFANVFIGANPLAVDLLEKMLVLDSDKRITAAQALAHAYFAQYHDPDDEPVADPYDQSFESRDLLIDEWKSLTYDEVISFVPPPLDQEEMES

OVCAR-5 = assay: Antiproliferative activity against human OVCAR-5 cells assessed as inhibition of cell growth at 10 uM by SRB assay relative to control; format: functional
[13] = molecular target: Tyrosine-protein kinase Lck (Homo sapiens) (UniProt P06239); assay: Inhibition of LCK (unknown origin) at 10 uM by biochemical hotspot kinase assay relative to control
Sequence of Tyrosine-protein kinase Lck (Homo sapiens) (P06239 2-509 limits assumed): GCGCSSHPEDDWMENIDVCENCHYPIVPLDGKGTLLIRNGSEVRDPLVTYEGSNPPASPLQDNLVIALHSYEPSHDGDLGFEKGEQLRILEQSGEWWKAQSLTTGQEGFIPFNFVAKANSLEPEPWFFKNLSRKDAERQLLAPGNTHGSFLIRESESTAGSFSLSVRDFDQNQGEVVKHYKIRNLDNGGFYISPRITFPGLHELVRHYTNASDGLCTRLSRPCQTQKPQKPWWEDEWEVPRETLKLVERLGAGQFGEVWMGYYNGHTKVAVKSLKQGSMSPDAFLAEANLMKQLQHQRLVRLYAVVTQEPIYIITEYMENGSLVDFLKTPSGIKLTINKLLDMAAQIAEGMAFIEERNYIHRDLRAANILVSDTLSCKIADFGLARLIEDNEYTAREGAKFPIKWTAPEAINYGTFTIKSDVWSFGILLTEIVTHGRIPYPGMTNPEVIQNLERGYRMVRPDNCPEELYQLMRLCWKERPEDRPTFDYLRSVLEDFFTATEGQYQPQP

A498 = assay: Antiproliferative activity against human A498 cells assessed as inhibition of cell growth at 10 uM by SRB assay relative to control; format: functional
HT-29 [14] = assay: Induction of cell cycle arrest in human HT-29 cells assessed as accumulation of cells at G1 phase at 5 uM incubated for 24 hrs by PI staining based analysis (reference value: 40.3%); format: functional
[15] = molecular target: Death-associated protein kinase 2 (Homo sapiens) (UniProt Q9UIK4); assay: Inhibition of DAPK2 (unknown origin) at 10 uM by biochemical hotspot kinase assay relative to control
Sequence of Death-associated protein kinase 2 (Homo sapiens) (Q9UIK4 whole entry, looked up): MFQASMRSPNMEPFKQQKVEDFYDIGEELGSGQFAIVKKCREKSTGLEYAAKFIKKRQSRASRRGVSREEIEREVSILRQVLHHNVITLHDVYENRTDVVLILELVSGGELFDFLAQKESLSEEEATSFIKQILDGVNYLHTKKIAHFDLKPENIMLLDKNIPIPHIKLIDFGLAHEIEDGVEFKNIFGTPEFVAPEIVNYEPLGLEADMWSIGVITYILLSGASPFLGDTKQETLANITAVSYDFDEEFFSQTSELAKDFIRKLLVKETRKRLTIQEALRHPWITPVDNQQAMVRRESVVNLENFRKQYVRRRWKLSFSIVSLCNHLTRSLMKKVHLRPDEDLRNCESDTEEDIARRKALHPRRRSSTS

[16] = molecular target: High affinity nerve growth factor receptor (Homo sapiens) (UniProt P04629); assay: Inhibition of TrkA (unknown origin) at 10 uM by biochemical hotspot kinase assay
[17] = molecular target: Fibroblast growth factor receptor 3 (Homo sapiens) (UniProt P22607); assay: Inhibition of FGFR3 (unknown origin) at 10 uM by biochemical hotspot kinase assay relative to control
[18] = molecular target: Tyrosine-protein kinase SYK (Homo sapiens) (UniProt P43405); assay: Inhibition of SYK (unknown origin) at 10 uM by biochemical hotspot kinase assay relative to control
[19] = molecular target: CDK1/Cyclin E (Homo sapiens) (UniProt P06493+P24864); assay: Inhibition of CDK1/cyclin E (unknown origin) at 10 uM by biochemical hotspot kinase assay; format: protein-complex assay
[20] = molecular target: Mitogen-activated protein kinase kinase kinase kinase 1 (Homo sapiens) (UniProt Q92918); assay: Inhibition of HPK1 (unknown origin) at 10 uM by biochemical hotspot kinase assay
[21] = molecular target: Mitogen-activated protein kinase 3 (Homo sapiens) (UniProt P27361); assay: Inhibition of ERK1 (unknown origin) at 10 uM by biochemical hotspot kinase assay
Sequence of Mitogen-activated protein kinase 3 (Homo sapiens) (P27361 whole entry): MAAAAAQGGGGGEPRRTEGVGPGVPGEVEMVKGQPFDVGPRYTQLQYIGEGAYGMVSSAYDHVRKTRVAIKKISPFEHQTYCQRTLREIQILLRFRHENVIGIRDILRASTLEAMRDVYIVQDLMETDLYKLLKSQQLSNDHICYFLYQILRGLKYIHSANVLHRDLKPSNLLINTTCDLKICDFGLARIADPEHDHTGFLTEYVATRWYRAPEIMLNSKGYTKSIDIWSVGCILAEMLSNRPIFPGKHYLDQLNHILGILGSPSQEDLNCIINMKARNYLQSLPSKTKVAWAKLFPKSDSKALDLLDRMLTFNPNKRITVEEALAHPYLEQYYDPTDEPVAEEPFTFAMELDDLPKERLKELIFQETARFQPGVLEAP

[22] = molecular target: Mitogen-activated protein kinase kinase kinase 7 (Homo sapiens) (UniProt O43318); assay: Inhibition of TAK1 (unknown origin) at 10 uM by biochemical hotspot kinase assay relative to control
[23] = molecular target: Death-associated protein kinase 1 (Homo sapiens) (UniProt P53355); assay: Inhibition of DAPK1 (unknown origin) at 10 uM by biochemical hotspot kinase assay
[24] = molecular target: Proto-oncogene tyrosine-protein kinase Src (Homo sapiens) (UniProt P12931); assay: Inhibition of c-Src (unknown origin) at 10 uM by biochemical hotspot kinase assay
Sequence of Proto-oncogene tyrosine-protein kinase Src (Homo sapiens) (P12931 2-536 limits assumed): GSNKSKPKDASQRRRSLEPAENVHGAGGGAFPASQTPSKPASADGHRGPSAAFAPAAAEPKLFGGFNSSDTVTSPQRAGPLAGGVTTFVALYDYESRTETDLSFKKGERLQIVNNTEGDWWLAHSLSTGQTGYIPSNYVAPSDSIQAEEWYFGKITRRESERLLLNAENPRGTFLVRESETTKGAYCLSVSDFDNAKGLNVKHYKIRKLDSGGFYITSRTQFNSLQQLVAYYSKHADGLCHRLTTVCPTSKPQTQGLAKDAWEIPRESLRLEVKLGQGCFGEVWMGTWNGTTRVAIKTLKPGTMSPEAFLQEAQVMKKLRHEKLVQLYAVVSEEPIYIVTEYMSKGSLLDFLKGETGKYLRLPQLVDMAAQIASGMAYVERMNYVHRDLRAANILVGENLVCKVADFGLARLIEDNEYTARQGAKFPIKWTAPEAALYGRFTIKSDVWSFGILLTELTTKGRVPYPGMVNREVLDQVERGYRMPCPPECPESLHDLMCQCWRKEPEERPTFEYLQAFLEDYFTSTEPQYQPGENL

[25] = molecular target: Receptor-type tyrosine-protein kinase FLT3 (Homo sapiens) (UniProt P36888); assay: Inhibition of FLT3 (unknown origin) at 10 uM by biochemical hotspot kinase assay relative to control
[26] = molecular target: Cyclin-dependent kinase 2/cyclin A (Homo sapiens) (UniProt P24941+P20248+P78396); assay: Inhibition of CDK2/cyclin A (unknown origin) at 10 uM by biochemical hotspot kinase assay; format: protein-complex assay
[27] = molecular target: Insulin receptor (Homo sapiens) (UniProt P06213); assay: Inhibition of INSR (unknown origin) at 10 uM by biochemical hotspot kinase assay
[28] = molecular target: Tyrosine-protein kinase Lyn (Homo sapiens) (UniProt P07948); assay: Inhibition of LYN (unknown origin) at 10 uM by biochemical hotspot kinase assay
[29] = molecular target: TRAF2 and NCK-interacting protein kinase (Homo sapiens) (UniProt Q9UKE5); assay: Inhibition of TNIK (unknown origin) at 10 uM by biochemical hotspot kinase assay relative to control
HT-29 [30] = assay: Antiproliferative activity against human HT-29 cells assessed as cell growth inhibition by SRB assay; format: functional

In the case of `COc1cc2oc(-c3cccc(C(=O)Nc4ccc(Cl)cc4)c3)cc(=O)c2c(OC)c1OC`, the inhibition at 10 µM (SF-268) is reported as > 50%, the inhibition at 10 µM (NCI-H226) is reported as 51.8% and the inhibition (T47D) is reported as “Active”. For the same molecule, the inhibition at 10 µM (M14) was 107% and the inhibition at 10 µM (SK-MEL-2) was 68.6%.
With `COc1cc2oc(-c3cccc(C(=O)Nc4ccc(C)cc4)c3)cc(=O)c2c(OC)c1OC` the inhibition [1] was 7.95%, the inhibition [2] was 36.1% and the inhibition [3] was “inactive”. The inhibition [4] was “inactive”, the inhibition [5] was 6.26% and the inhibition [6] was 1.99%. The inhibition [7] was “inactive”, the inhibition [8] was 1.03% and the inhibition [9] was 27.1%. For the same molecule, the inhibition [10] was “inactive”, the inhibition [11] was “inactive” and the inhibition [12] was “inactive”. The inhibition at 10 µM (OVCAR-5) was 51.8%, the inhibition [13] was 0.68% and the inhibition at 10 µM (A498) was 94%. For the same molecule, the Activity (HT-29 [14]) was 59.1%, the inhibition [15] was 0.74% and the inhibition [16] was “inactive”. The inhibition [17] was 0.26%, the inhibition [18] was 1.17% and the inhibition [19] was “inactive”. For the same molecule, the inhibition [20] was “inactive”, the inhibition [21] was “inactive” and the inhibition [22] was 7.06%. The inhibition [23] was “inactive”, the inhibition [24] was “inactive” and the inhibition [25] was 10.7%. For the same molecule, the inhibition [26] was “inactive”, the inhibition [27] was “inactive” and the inhibition [28] was “inactive”. For the same molecule, the inhibition [29] was 46.1% and the GI50 (HT-29 [30]) was 2550 nM.
